≈ marks a conversion by molar mass, not a printed value. Where “and” joins values, the source holds several entries; their conditions need not be identical. Equal entries are not always repeated. Where two headings read alike, the source gives them in different places.
Experiments:
[1] = test system: methicillin-resistant S. aureus (ATCC 33591); experiment: Thigh infection model in neutropenic CD1 mice, MRSA; conditions: 24 hours; for Log reduction: vs vehicle
[2] = test system: Mycobacterium smegmatis; experiment: Time kill curve, liquid culture, M. smegmatis; format: cell-based; conditions: 1.9 micromolar; vs DMSO control; FIG. 1 right-hand graph
[3] = test system: P. aeruginosa ATCC 9027; experiment: Broth dilution MIC, P. aeruginosa ATCC 9027; format: cell-based; conditions: Pseudomonas aeruginosa
[4] = test system: K. pneumoniae ATCC 13883; experiment: Broth dilution MIC, K. pneumoniae ATCC 13883; format: cell-based; conditions: Klebsiella pneumoniae
[5] = test system: E. coli (ATCC 25922); experiment: Septicemia survival model in neutropenic CD1 mice, E. coli; format: in vivo
[6] = test system: S. pneumoniae ATCC 6301 (PSSP); experiment: Broth dilution MIC, S. pneumoniae ATCC 6301; format: cell-based; conditions: Streptococcus pneumoniae
[7] = test system: E. faecium CT-26; experiment: Broth dilution MIC, E. faecium CT-26; format: cell-based; conditions: Enterococcus faecium
[8] = test system: K. pneumoniae ATCC 51503; experiment: Broth dilution MIC, K. pneumoniae ATCC 51503; format: cell-based; conditions: Klebsiella pneumoniae
[9] = test system: MRSA; experiment: Disk diffusion assay, zone of inhibition, MRSA; format: cell-based, Staphylococcus aureus
[10] = test system: Mycobacterium tuberculosis; experiment: Time kill curve, liquid culture, M. tuberculosis; format: cell-based; conditions: 1.9 micromolar; vs DMSO control; FIG. 1 left-hand graph
Procedure: Either Mycobacterium tuberculosis or Mycobacterium smegmatis liquid cultures were incubated with SKI-1 (356313) at a concentration of 1.9 micromolar and viable bacterial titer was determined over the time period indicated by culturing serial dilutions on agar media. Control cultures were treated with an equivalent volume of DMSO.

[11] = test system: E. coli ECM 1694; experiment: Broth dilution MIC, E. coli ECM 1694; format: cell-based; conditions: Escherichia coli
[12] = test system: E. faecium ATCC 700221 (VRE); experiment: Broth dilution MIC, E. faecium ATCC 700221; format: cell-based
[13] = test system: S. aureus BAA-39 (MDR); experiment: Broth dilution MIC, S. aureus BAA-39; format: cell-based; conditions: for MIC: Staphylococcus aureus, BAA39
[14] = test system: M. tuberculosis; experiment: Testing against M. tuberculosis; format: cell-based; conditions: recent testing
[15] = test system: S. aureus ATCC 33591 (MRSA); experiment: Broth dilution MIC, S. aureus ATCC 33591; format: cell-based; conditions: for MIC: Staphylococcus aureus
[16] = test system: S. aureus ATCC 29213 (MSSA); experiment: Broth dilution MIC, S. aureus ATCC 29213; format: cell-based; conditions: Staphylococcus aureus
[17] = test system: M. smegmatis Mc2155; experiment: MIC against M. smegmatis Mc2155; format: cell-based; conditions: Mycolicibacterium smegmatis
[18] = test system: M. smegmatis (mc2155); experiment: Disk diffusion assay, zone of inhibition, M. smegmatis; format: cell-based
[19] = test system: E. faecalis ATCC 29212 (VRE); experiment: Broth dilution MIC, E. faecalis ATCC 29212; format: cell-based
[20] = test system: MRSA; experiment: MIC against MRSA; format: cell-based; conditions: Staphylococcus aureus
[21] = disk diffusion zone of inhibition

In the case of `c1cc(C2=NCCN2)ccc1Nc1ccc(-c2cc3ccc(C4=NCCN4)cc3[nH]2)cc1` [SKI-1], the “Mean bacterial tissue burden (log10/thigh)” value ([1]; 10 mg/kg BID IP) is reported as 8.3106 log10/thigh, the Log reduction ([1]; 10 mg/kg BID IP, listed as 356313, 10 mg/kg) is reported as 0.14 Log and 0.1382 Log and the “Mean bacterial tissue burden (log10/thigh)” value ([1]; 20 mg/kg BID IP) is reported as 7.7428 log10/thigh. For the same compound, the Log reduction ([1]; 20 mg/kg BID IP, listed as 356313, 20 mg/kg) was 0.71 Log and 0.7060 Log, the “Viable bacterial titer over time (time kill curve)” value [2] was “bactericidal” and the MIC ([3]; ATCC 9026 / ATCC 9027, Table 2, broth dilution MIC in ug/ml, read-out: MIC P aeruginosa ATCC 9026) was 1 µg/mL (≈ 2.38 µM). The MIC ([3]; ATCC9027, Table 1, range 64 down to 0.12 μg/ml, read-out: MIC P. aeruginosa ATCC 9027) was 1 µg/mL (≈ 2.38 µM), the MIC ([3]; ATCC9027, Table 4, broth dilution MIC according to CLSI standards (NAEJA), read-out: MIC P. aeruginosa ATCC 9027) was 0.5 µg/mL (≈ 1.19 µM) and the MIC ([4]; ATCC13883, Table 1, range 64 down to 0.12 μg/ml, read-out: MIC K. pneumoniae ATCC 13883) was 1 µg/mL (≈ 2.38 µM). The MIC ([4]; ATCC13883, Table 2, broth dilution MIC in ug/ml, read-out: MIC K pneumonia ATCC 13883) was 1 µg/mL (≈ 2.38 µM), the MIC ([4]; ATCC13883, Table 4, broth dilution MIC according to CLSI standards (NAEJA), read-out: MIC K. pneumoniae ATCC 13883) was 0.5 µg/mL (≈ 1.19 µM) and the “Day by which all the mice died” value ([5]; 10 mg/kg) was no more than 3 days. For the same compound, the “Percent Survival Day 1” value ([5]; 10 mg/kg BID IP) was 100%, the “Percent Survival Day 2” value ([5]; 10 mg/kg BID IP) was 60% and the “Percent Survival Day 3” value ([5]; 10 mg/kg BID IP) was 0%. The “Percent Survival Day 4” value ([5]; 10 mg/kg BID IP) was 0%, the “Percent Survival Day 5” value ([5]; 10 mg/kg BID IP) was 0% and the “Percent Survival Day 6” value ([5]; 10 mg/kg BID IP) was 0%. The “Percent Survival Day 7” value ([5]; 10 mg/kg BID IP) was 0%, the “Day by which all the mice died” value ([5]; 20 mg/kg) was no more than 4 days and the “Percent Survival Day 1” value ([5]; 20 mg/kg BID IP) was 100%. The “Percent Survival Day 2” value ([5]; 20 mg/kg BID IP) was 80%, the “Percent Survival Day 3” value ([5]; 20 mg/kg BID IP) was 60% and the “Percent Survival Day 4” value ([5]; 20 mg/kg BID IP) was 0%. The “Percent Survival Day 5” value ([5]; 20 mg/kg BID IP) was 0%, the “Percent Survival Day 6” value ([5]; 20 mg/kg BID IP) was 0% and the “Percent Survival Day 7” value ([5]; 20 mg/kg BID IP) was 0%. For the same compound, the MIC ([6]; ATCC6301, Table 1, range 64 down to 0.12 μg/ml, read-out: MIC S. pneumoniae ATCC 6301) was no more than 0.12 µg/mL, the MIC ([6]; ATCC6301, Table 2, broth dilution MIC in ug/ml, read-out: MIC S pneumonia ATCC 6301 PSSP) was 0.12 µg/mL (≈ 0.285 µM) and the MIC ([6]; ATCC6301, Table 3, starting at 4 μg/ml, read-out: MIC S. pneumoniae ATCC 6301) was 0.12 µg/mL (≈ 0.285 µM). For the same compound, the MIC ([6]; ATCC6301, Table 4, broth dilution MIC according to CLSI standards (NAEJA), read-out: MIC PSSP S. pneumoniae ATCC 6301) was 0.12 µg/mL (≈ 0.285 µM), the MIC ([7]; CT26, Table 1, range 64 down to 0.12 μg/ml, read-out: MIC E. faecium CT-26) was no more than 0.12 µg/mL and the MIC ([7]; CT26, Table 2, broth dilution MIC in ug/ml, read-out: MIC E faecium CT-25) was 0.06 µg/mL (≈ 0.143 µM). For the same compound, the MIC ([7]; CT26, Table 3, starting at 4 μg/ml, read-out: MIC E. faecium CT-26) was 0.06 µg/mL (≈ 0.143 µM), the MIC ([7]; CT26, Table 4, broth dilution MIC according to CLSI standards (NAEJA), read-out: MIC E. faecium CT-26) was 0.015 µg/mL (≈ 0.0357 µM) and the MIC ([8]; ATCC51503, Table 1, range 64 down to 0.12 μg/ml, read-out: MIC K. pneumoniae ATCC 51503) was 2 µg/mL (≈ 4.76 µM). The MIC ([8]; ATCC51503, Table 2, broth dilution MIC in ug/ml, read-out: MIC K pneumonia ATCC 51503) was 2 µg/mL (≈ 4.76 µM), the MIC ([8]; ATCC51503, Table 4, broth dilution MIC according to CLSI standards (NAEJA), read-out: MIC K. pneumoniae ATCC 51503) was 1 µg/mL (≈ 2.38 µM) and the “Average Zone Size MRSA” value [9] was 11. The “Zone Size MRSA” value [9, 21] was 11 mm, the “Viable bacterial titer over time (time kill curve)” value [10] was “bactericidal” and the MIC ([11]; ECM1694, Table 1, range 64 down to 0.12 μg/ml, read-out: MIC E. coli ECM 1694) was 0.25 µg/mL (≈ 0.595 µM). It also gave an MIC ([11]; ECM1694, Table 2, broth dilution MIC in ug/ml, read-out: MIC E. coli ECM 1693) of 0.25 µg/mL (≈ 0.595 µM), an MIC ([11]; ECM1694, Table 3, starting at 4 μg/ml, read-out: MIC E. coli ECM 1694) of 0.5 µg/mL (≈ 1.19 µM) and an MIC ([11]; ECM1694, Table 4, broth dilution MIC according to CLSI standards (NAEJA), read-out: MIC E. coli ECM 1694) of 0.25 µg/mL (≈ 0.595 µM). The MIC ([12]; Enterococcus faecium, Table 1, range 64 down to 0.12 μg/ml, read-out: MIC E. faecium ATCC 700221) was no more than 0.12 µg/mL, the MIC ([12]; Enterococcus faecium, Table 3, starting at 4 μg/ml, read-out: MIC E. faecium ATCC 700221) was 0.06 µg/mL (≈ 0.143 µM) and the MIC ([12]; Enterococcus faecium, Table 4, broth dilution MIC according to CLSI standards (NAEJA), read-out: MIC VRE E. faecium ATCC 700221) was 0.03 µg/mL (≈ 0.0713 µM). The MIC ([12]; Table 2, broth dilution MIC in ug/ml, read-out: MIC E faecium ATCC 700221 VRE) was 0.06 µg/mL (≈ 0.143 µM), the MIC ([13]; Table 1, range 64 down to 0.12 μg/ml, read-out: MIC S. aureus BAA-39) was 0.25 µg/mL (≈ 0.595 µM) and the MIC ([13]; Table 2, broth dilution MIC in ug/ml, read-out: MIC S aureus BAA-39 MDR) was 0.25 µg/mL (≈ 0.595 µM). The MIC ([13]; Table 4, broth dilution MIC according to CLSI standards (NAEJA), read-out: MIC MDR S. aureus BAA-39) was 0.25 µg/mL (≈ 0.595 µM), the “MIC S. aureus BAA-39” value ([13]; Table 3, starting at 4 μg/ml) was 0.25 µg/mL (≈ 0.595 µM) and the “Activity against M. tuberculosis” value [14] was “comparable to that observed for M. smegmatis”. It also gave an MIC ([15]; Table 1, range 64 down to 0.12 μg/ml, read-out: MIC S. aureus ATCC 33591) of 0.25 µg/mL (≈ 0.595 µM), an MIC ([15]; Table 2, broth dilution MIC in ug/ml, read-out: MIC S aureus ATCC 33591 MRSA) of 0.25 µg/mL (≈ 0.595 µM) and an MIC ([15]; Table 4, broth dilution MIC according to CLSI standards (NAEJA), read-out: MIC MRSA S. aureus ATCC 33591) of 0.12 µg/mL (≈ 0.285 µM). The “MIC S. aureus ATCC 33591” value ([15]; Table 3, starting at 4 μg/ml) was 0.25 µg/mL (≈ 0.595 µM), the MIC ([16]; Table 3, starting at 4 μg/ml, read-out: MIC S. aureus ATCC 29213) was 0.25 µg/mL (≈ 0.595 µM) and the MIC ([16]; Table 1, range 64 down to 0.12 μg/ml, read-out: MIC S. aureus ATCC 29213) was 0.25 µg/mL (≈ 0.595 µM). For the same compound, the MIC ([16]; Table 2, broth dilution MIC in ug/ml, read-out: MIC S aureus ATCC 29213 MSSA) was 0.25 µg/mL (≈ 0.595 µM), the MIC ([16]; Table 4, broth dilution MIC according to CLSI standards (NAEJA), read-out: MIC MSSA S. aureus ATCC 29213) was 0.25 µg/mL (≈ 0.595 µM) and the MIC [17] was 0.2 µM (≈ 0.0841 µg/mL). The “Zone Size M. smegmatis” value [18, 21] was 19.6 mm, the “Average Zone Size MC2155 (n = 3)” value ([18]; n = 3) was 12.3 and the MIC ([19]; Enterococcus faecalis, Table 1, range 64 down to 0.12 μg/ml, read-out: MIC E. faecalis ATCC 29212) was 0.25 µg/mL (≈ 0.595 µM). For the same compound, the MIC ([19]; Enterococcus faecalis, Table 4, broth dilution MIC according to CLSI standards (NAEJA), read-out: MIC VRE E. faecalis ATCC 29212) was 0.12 µg/mL (≈ 0.285 µM), the MIC ([19]; Table 2, broth dilution MIC in ug/ml, read-out: MIC E faecalis ATCC 29212 VRE) was 0.25 µg/mL (≈ 0.595 µM) and the “MIC E. faecalis ATCC 29212” value ([19]; Table 3, starting at 4 μg/ml) was 0.25 µg/mL (≈ 0.595 µM). It also gave an MIC [20] of 9.2 µM (≈ 3.87 µg/mL).
